Target: T1, human HSD17β13 (stable HEK293T cell line overexpressing human HSD17β13) (Homo sapiens, UniProt Q7Z5P4)
T1 construct: expressed in transfected cells
T1 sequence (Q7Z5P4 20-300): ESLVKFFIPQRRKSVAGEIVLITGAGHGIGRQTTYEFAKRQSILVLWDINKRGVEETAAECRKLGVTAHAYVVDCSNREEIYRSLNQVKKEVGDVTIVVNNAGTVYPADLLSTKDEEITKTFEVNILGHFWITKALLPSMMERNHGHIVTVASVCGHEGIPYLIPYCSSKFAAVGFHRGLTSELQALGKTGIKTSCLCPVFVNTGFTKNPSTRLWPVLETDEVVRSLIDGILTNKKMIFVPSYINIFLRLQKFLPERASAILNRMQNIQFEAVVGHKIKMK
Experiment: HSD17β13 inhibitor cell-based screening assay (conversion of estradiol-d2 to estrone-d2 by RF-MS)
Conditions: conversion of estradiol-d2 to estrone-d2 after 24 hours
Description: The purpose of this cell-based assay is to determine the cellular efficacy (IC50) of HSD17β13 inhibitors in a stable HEK293 T cell line overexpressing human HSD17β13. The assay measures by Rapid Fire mass-spectrometry (RF-MS) the conversion of estradiol-d2 to estrone-d2. Cytotoxicity was also assessed via luminescent signal generated by the ATPlite viability assay reagent. To screen compounds for HSD17013 inhibition, black 384-well plates were seeded with 1000× concentration of compounds in a 9-point 1:3 dilution curve (final top concentration of 10 μM) as well as 1000× concentration of 17β-estradiol-d2 (5 μM final concentration) added to all wells. HEK293T cells stably overexpressing human HSD17013 and the parent HEK293T cell lines were then seeded in the plates on top of the compounds and substrate in MEM media containing 1% charcoal/dextran-treated FBS. Supernatant is collected and immediately frozen after 24 hours of incubation, and conversion of estradiol-d2 to estrone-d2 is measured at Pure Honey by RF-MS. The remaining media in the plate was removed from the wells and replaced with ATPlite viability assay reagent. Luminescent signal from the ATPlite reagent was measured on the Envision plate reader. 10 μL of 10 mM compounds stocks (1000×) dissolved in DMSO were pipetted into the appropriate wells on the 384 LDV plate (Labcyte; cat. no.: LP-0200) and the appropriate volumes of DMSO solvent were included onto an intermediate plate to further dilute the compound stocks to complete the 9-pt dose curve (final top concentration of 10 μM). 10 μL per well of 5 mM estradiol-d2 (1000×) (Cayman; item no.: 9002846) (5 μM final concentration) dissolved in DMSO was seeded into the appropriate number of wells on the same source plate as the compounds. The Echo 650 (Labcyte) was used for compound dilutions and dispensing both the compounds and the substrate onto a dry 384-well black assay plate (Falcon/Corning; cat. no.:353962). Afterwards, cells were immediately counted and seeded onto the plate. Cells were cultured for expansion in EMEM (ATCC; cat. no.: 30-2003)+10% FBS (Hyclone; cat. no.: SH3007003)+1×PenStrep (Gibco; cat. no.: 15140-122). All media for stable cell line overexpressing HSD17013 also included […] zeocin (Invitrogen; cat. no.: 46-0509) for selection. To prepare cells for seeding into the 384-well assay plate, cells were trypsinized for 3 minutes in the incubator. The Trypsin-EDTA (0.25%) (Gibco; cat. no.: 25200056) was neutralized with EMEM complete culture medium warmed to 37° C. Cells were then centrifugated at 300×g for 5 minutes at room temperature. The cell pellet was resuspended in phenol red-free MEM (Gibco; cat. no.: 51200-038)+1% charcoal/dextran-treated FBS (Hyclone; cat. no.: SH3006803) and 1×PenStrep warmed to 37° C. Cells were then counted using the TC20 automated cell-counter (Bio-Rad) and disposable duel chamber counting slides (Bio-Rad; cat. no.: 1450016) for a cell density of 1.5E5 cells/mL to then seed into the assay plate at 7.5E3 cells/well with 50 μL of media per well. Prior to the 24-hour time point, a solution of 1% formic acid (10×) (Honeywell; cat. no.: 94318) in MEM phenol red-free MEM+1% charcoal/dextran-treated FBS and 1×PenStrep was made. ATPlite luminescent ATP detection reagent (PerkinElmer; cat. no.: 6016739) was prepared according to the manufacturer's instructions. A new 384-well Falcon plate (collection plate) was seeded with 2 μL per well of 10× formic acid and then 18 μL of cell supernatant was added onto the formic acid, resulting in a 20 μL per well solution of 0.1% formic acid (1×) in supernatant. The plate of collected supernatant was immediately frozen on dry ice before being stored at −80° C. The collection plate was shipped to Momentum Biotechnologies for analysis. The remaining supernatant in the assay plate was discarded and 25 μL of ATPlite reagent was added to each well. […]

IC50 [µM]	SMILES
< 0.1	CS(=O)(=O)c1cnc(-c2nc3sc4c(O)c(Cl)ccc4c3c(=O)n2Cc2cc(C(F)(F)F)no2)c(C2CC2)c1 [Example 112, 7-chloro-2-(3-cyclopropyl-5-(methylsulfonyl)pyridin-2-yl)-8-hydroxy-3-((3-(trifluoromethyl)isoxazol-5-yl)methyl)benzo[4,5]thieno[2,3-d]pyrimidin-4(3H)-one]
< 0.1	N#Cc1ccc(-c2nc3sc4c(O)c(Cl)ccc4c3c(=O)n2Cc2ccc(C(F)(F)F)nc2)c(C2CC2)c1 [Example 113, 4-(7-chloro-8-hydroxy-4-oxo-3-((6-(trifluoromethyl)pyridin-3-yl)methyl)-3,4-dihydrobenzo[4,5]thieno[2,3-d]pyrimidin-2-yl)-3-cyclopropylbenzonitrile]
< 0.1	N#Cc1ccc(-c2nc3sc4c(O)c(Cl)ccc4c3c(=O)n2Cc2cnc(C(F)(F)F)nc2)c(C2CC2)c1 [Example 114]
< 0.1	N#Cc1cnc(-c2nc3sc4c(O)c(Cl)ccc4c3c(=O)n2Cc2cc(C(F)(F)F)no2)c(C2CC2)c1 [Example 115]
< 0.1	O=c1c2c(nc(-c3ncc(C(F)F)cc3C3CC3)n1Cc1cnc(C(F)(F)F)nc1)sc1c(O)c(Cl)ccc12 [Example 116, 7-chloro-2-(3-cyclopropyl-5-(difluoromethyl)pyridin-2-yl)-8-hydroxy-3-((2-(trifluoromethyl)pyrimidin-5-yl)methyl)benzo[4,5]thieno[2,3-d]pyrimidin-4(3H)-one]
0.1 to 0.5	COc1cc(-c2nc3sc4c(O)c(Cl)ccc4c3c(=O)n2Cc2cnco2)c(C2CC2)cc1OC [Example 118]
0.1 to 0.5	COc1ccc(-c2nc3sc4c(O)c(Cl)ccc4c3c(=O)n2Cc2cnco2)c(C2CCCC2)c1 [Example 121]
0.1 to 0.5	COc1ccc(-c2nc3sc4c(O)c(Cl)ccc4c3c(=O)n2Cc2cnco2)c(C)c1 [Example 124]
0.1 to 0.5	C#CCn1c(-c2ccc(OC)cc2C2CC2)nc2sc3c(O)c(Cl)ccc3c2c1=O [Example 126]
< 0.1	CCn1c(=O)c(C)cn(CCCn2c(-c3ccc(OC)cc3C3CC3)nc3sc4c(O)c(Cl)ccc4c3c2=O)c1=O [Example 127]
0.5 to 1	COc1ccc(-c2nc3sc4c(O)c(Cl)ccc4c3c(=O)n2Cc2cnco2)c(C(C)(C)C)c1 [Example 128]
< 0.1	COc1ccc(-c2nc3sc4c(O)c(Cl)ccc4c3c(=O)n2Cc2cn(C(F)F)nn2)c(C2CC2)c1 [Example 129]
< 0.1	O=c1c2c(nc(-c3c(C4CC4)ccc(C(F)(F)F)c3F)n1Cc1cnco1)sc1c(O)c(Cl)ccc12 [Example 134]
< 0.1	O=c1c2c(nc(-c3cc(C(F)(F)F)ccc3C3CC3)n1Cc1cnco1)sc1c(O)c(Cl)ccc12 [Example 136]
< 0.1	O=c1c2c(nc(-c3cccc(C(F)(F)F)c3C3CC3)n1Cc1cnco1)sc1c(O)c(Cl)ccc12 [Example 139]
< 0.1	O=c1c2c(nc(-c3ccc4cc[nH]c4c3C3CC3)n1Cc1cnco1)sc1c(O)c(Cl)ccc12 [Example 140]
< 0.1	O=c1c2c(nc(-c3cc(F)c(C(F)F)cc3C3CC3)n1Cc1cnco1)sc1c(O)c(Cl)ccc12 [Example 141]
< 0.1	Cn1ncc2cc(-c3nc4sc5c(O)c(Cl)ccc5c4c(=O)n3Cc3cnco3)c(C3CC3)cc21 [Example 142]
< 0.1	O=c1c2c(nc(-c3ccc4ccccc4c3C3CC3)n1Cc1cnco1)sc1c(O)c(Cl)ccc12 [Example 145]
< 0.1	COc1cccc(-c2nc3sc4c(O)c(Cl)ccc4c3c(=O)n2Cc2cnco2)c1C1CC1 [Example 146]
0.5 to 1	CCn1c(=O)c(C)cn(CCn2c(-c3ccc(OC)cc3C3CC3)nc3sc4c(O)c(Cl)ccc4c3c2=O)c1=O [Example 150]
< 0.1	COc1ccc(-c2nc3sc4c(O)c(Cl)ccc4c3c(=O)n2Cc2ccncc2)c(C2CC2)c1 [Example 151]

IC50 [µM]	SMILES
< 0.1	COc1ccc(-c2nc3sc4c(O)c(Cl)ccc4c3c(=O)n2Cc2cccnc2)c(C2CC2)c1 [Example 152]
< 0.1	COc1ccc(-c2nc3sc4c(O)c(Cl)ccc4c3c(=O)n2Cc2ccc(C(F)(F)F)nc2)c(C2CC2)c1 [Example 153]
< 0.1	COc1ccc(-c2nc3sc4c(O)c(Cl)ccc4c3c(=O)n2Cc2cncc(C(F)(F)F)c2)c(C2CC2)c1 [Example 154]
< 0.1	COc1ccc(-c2nc3sc4c(O)c(Cl)ccc4c3c(=O)n2Cc2ccnc(C(F)(F)F)c2)c(C2CC2)c1 [Example 155]
< 0.1	COc1ccc(-c2nc3sc4c(O)c(Cl)ccc4c3c(=O)n2Cc2ccnc(OC)c2)c(C2CC2)c1 [Example 156]
0.1 to 0.5	COc1ccc(C2=Nc3sc4c(O)c(Cl)ccc4c3C(=O)C2Cc2cc[nH]c(=O)c2)c(C2CC2)c1 (centres unmarked) [Example 157]
< 0.1	O=c1c2c(nc(-c3sc4ccccc4c3C3CC3)n1Cc1cnco1)sc1c(O)c(Cl)ccc12 [Example 158]
< 0.1	O=c1c2c(nc(-c3ccc(C(F)F)cc3C3CC3)n1Cc1cnco1)sc1c(O)c(Cl)ccc12 [Example 159]
< 0.1	COc1ccc(-c2nc3sc4c(O)c(Cl)ccc4c3c(=O)n2Cc2ccc(OC)nc2)c(C2CC2)c1 [Example 160]
< 0.1	COc1ccc(C2=Nc3sc4c(O)c(Cl)ccc4c3C(=O)C2Cc2ccc(=O)[nH]c2)c(C2CC2)c1 (centres unmarked) [Example 161]
< 0.1	O=c1c2c(nc(-c3cc(F)c(F)cc3C3CC3)n1Cc1ccc(C(F)(F)F)nc1)sc1c(O)c(Cl)ccc12 [Example 162]
< 0.1	O=c1c2c(nc(-c3cc(F)c(F)cc3C3CC3)n1Cc1cccnc1)sc1c(O)c(Cl)ccc12 [Example 163]
< 0.1	Cn1ncc2cc(-c3nc4sc5c(O)c(Cl)ccc5c4c(=O)n3Cc3cc(C(F)(F)F)no3)c(C3CC3)cc21 [Example 164]
< 0.1	O=c1c2c(nc(-c3cc(F)c(F)cc3C3CC3)n1Cc1cc(Br)no1)sc1c(O)c(Cl)ccc12 [Example 165]
< 0.1	CS(=O)(=O)c1ccc(-c2nc3sc4c(O)c(Cl)ccc4c3c(=O)n2Cc2cccnc2)c(C2CC2)c1 [Example 166]
< 0.1	Cn1ccc(Cn2c(-c3cc(F)c(F)cc3C3CC3)nc3sc4c(O)c(Cl)ccc4c3c2=O)cc1=O [Example 167]
< 0.1	COc1ccc(Cn2c(-c3cc(F)c(F)cc3C3CC3)nc3sc4c(O)c(Cl)ccc4c3c2=O)cn1 [Example 168]
< 0.1	N#Cc1ccc(-c2nc3sc4c(O)c(Cl)ccc4c3c(=O)n2Cc2cccnc2)c(C2CC2)c1 [Example 170]
< 0.1	N#Cc1ccc(Cn2c(-c3cc(F)c(F)cc3C3CC3)nc3sc4c(O)c(Cl)ccc4c3c2=O)cn1 [Example 172]
< 0.1	O=c1c2c(nc(-c3cnc(C(F)(F)F)cc3C3CC3)n1Cc1cc(C(F)(F)F)no1)sc1c(O)c(Cl)ccc12 [Example 173]
< 0.1	O=c1c2c(nc(-c3ccc(C(F)F)cc3C3CC3)n1Cc1cnc(C(F)(F)F)nc1)sc1c(O)c(Cl)ccc12 [Example 177]
< 0.1	O=c1c2c(nc(-c3cnc(C(F)(F)F)cc3C3CC3)n1Cc1cnc(C(F)(F)F)nc1)sc1c(O)c(Cl)ccc12 [Example 178]

From patent US20250154163A1, “Pyrimidinone-Containing 17-Beta-Hydroxysteroid Dehydrogenase Type 13 Inhibitors” (ENANTA PHARMACEUTICALS, INC., priority 2023, published 2025)
